Data published in patent publication US4780464A, “(1,2,4)triazolo(4,3-a)quinoxaline-4-amines” (Warner-Lambert Company, priority 1986, dated 1988).

Tests used:
[1] = target: T1, adenosine A1 receptor (Rattus norvegicus, UniProt P25099); assay: Adenosine Receptor Binding--A1 Receptor Affinity (RBA1), [3H]-CHA, rat whole brain minus cerebellum and brainstem membranes; design: species or system rat (male Long-Evans); details: 1.0 nM [3H]-CHA, pH 7.7, 25° C., one hour, read-out: RBA-1 (IC50, adenosine A1 receptor affinity)
T1 construct: Whole brain minus cerebellum and brainstem from male Long-Evans rats (150-200 g) is homogenized; from tissue; host or cells: rat whole brain minus cerebellum and brainstem, membranes
T1 sequence (P25099 1-326): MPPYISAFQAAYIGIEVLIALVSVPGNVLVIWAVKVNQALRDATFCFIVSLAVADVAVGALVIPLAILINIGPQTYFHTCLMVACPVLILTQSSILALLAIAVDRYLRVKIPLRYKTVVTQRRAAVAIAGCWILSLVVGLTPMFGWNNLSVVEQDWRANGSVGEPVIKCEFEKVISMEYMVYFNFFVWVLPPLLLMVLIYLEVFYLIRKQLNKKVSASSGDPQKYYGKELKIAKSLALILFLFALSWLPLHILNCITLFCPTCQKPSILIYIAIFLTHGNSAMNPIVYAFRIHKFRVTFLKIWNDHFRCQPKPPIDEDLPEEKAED
Description: Whole brain minus cerebellum and brainstem from male Long-Evans rats (150-200 g) is homogenized in 30 volumes of ice-cold 0.05 M Tris-HCl buffer pH 7.7 using a Brinkman Polytron PT-10, (setting number 6 for 20 seconds) and centrifuged for ten minutes at 20,000×g (Sorvall RC-2), 4° C. The supernatant is discarded, and the pellet is resuspended and centrifuged as before. The pellet is resuspended in 20 ml Tris-HCl buffer containing two International Units/ml of adenosine deaminase (Sigma type III from calf intestinal mucosa), incubated at 37° C. for 30 minutes, then subsequently at 0° C. for ten minutes. The homogenate is again centrifuged, and the final pellet is resuspended in ice-cold 0.05 M Tris-HCl buffer pH 7.7 to a concentration of 20 mg/ml original wet tissue weight and used immediately. […] Incubation volume was 2 ml. […] The filters are rinsed three times with 5 ml of ice-cold 0.05 M Tris-HCl buffer pH 7.7. The radio-labeled ligand retained on the filter is measured by liquid scintillation spectrophotometry after shaking the filters for one hour or longer on a mechanical shaker in 10 ml of Beckman Ready-Solv HP scintillation cocktail. Nonspecific binding is defined as the binding which occurs in the presence of 1 mM theophylline. […] The Scatchard plot is calculated by linear regression of the line obtained by plotting the amount of radioligand bound (pmoles/gram of tissue) versus [formula] Since the amount of radioligand bound is a small fraction of the total amount added, free radioligand is defined as the concentration of (nM) of radioligand added to the incubation mixture. The Hill coefficient is calculated by linear regression of the line obtained by plotting the log of the bound radioligand vs the log of the [formula] The maximal number of binding sites (Bmax) is calculated from the Scatchard plot.

[2] = target: T2, adenosine A2 receptor (Rattus norvegicus, UniProt P30543); assay: Adenosine Receptor Binding--A2 Receptor Affinity (RBA2), [3H]NECA, rat striatal membranes; design: species or system rat (Sprague-Dawley; Long-Evans hooded); details: 4 nM [3H]NECA, 50 nM N6-cyclopentyladenosine, 25° C., 60 min, read-out: RBA-2 (IC50, adenosine A2 receptor affinity)
T2 construct: Brains are thawed and then kept on ice while the striata are dissected out; tissue Pel-Freez (Rogers, Arkansas); host or cells: rat striatum, membranes
T2 sequence (P30543 whole entry): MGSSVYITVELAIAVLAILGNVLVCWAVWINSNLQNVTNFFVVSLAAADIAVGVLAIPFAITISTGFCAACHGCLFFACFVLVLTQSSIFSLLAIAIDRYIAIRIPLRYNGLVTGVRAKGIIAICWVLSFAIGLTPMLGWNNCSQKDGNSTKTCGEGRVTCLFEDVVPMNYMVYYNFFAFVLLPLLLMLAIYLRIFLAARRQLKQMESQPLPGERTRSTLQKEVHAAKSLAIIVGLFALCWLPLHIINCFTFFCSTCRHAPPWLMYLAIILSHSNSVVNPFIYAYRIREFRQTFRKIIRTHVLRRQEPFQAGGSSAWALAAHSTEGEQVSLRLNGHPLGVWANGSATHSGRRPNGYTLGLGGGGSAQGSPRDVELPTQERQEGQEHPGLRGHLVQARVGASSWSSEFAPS
Description: Brains from 200-500 g mixed sex Sprague-Dawley rats are purchased from Pel-Freez (Rogers, Arkansas). Fresh brains from male Long-Evans hooded rats (Blue Spruce Farms, Altamont, NY) give essentially identical results. Brains are thawed and then kept on ice while the striata are dissected out. Striata are disrupted in 10 vol of ice-cold 50 mM Tris.HCl (pH 7.7 at 25° C., pH 8.26 at 5° C.) (Tris) for 30 seconds in a Polytron PT-10 (Brinkman) at setting 5. The suspension is centrifuged at 50,000 xg for ten minutes, the supernatant discarded, the pellet resuspended in 10 vol ice-cold Tris as above, recentrifuged, resuspended at 1 g/5 ml, and stored in plastic vials at -70° C. (stable for at least six months). When needed, tissue is thawed at room temperature, disrupted in a Polytron, and kept on ice until used.
All incubations are for 60 minutes at 25° C. in 12×75 mm glass tubes containing 1 ml Tris with 5 mg original tissue weight of rat weight of rat striatal membranes, 4 nM [^3 H]-N-ethyl adenosine-5'-carboxamide ([^3 H]NECA), 50 nM N6-cyclopentyladenosine (to eliminate A1 receptor binding), 10 mM MgCl2, 0.1 units/ml of adenosine deaminase and 1% dimethylsulfoxide. N6-Cyclopentyladenosine is dissolved at 10 mM in 0.02 N HCl and diluted in Tris. Stock solutions and dilutions of N6-cyclopentyladenosine can be stored at -20° C. for several months. Test compounds are dissolved at 10 mM in dimethylsulfoxide on the same day as the experiment, and diluted in dimethylsulfoxide to 100× the final incubation concentration. […] [^3 H]NECA is diluted to 40 nM in Tris. The membrane suspension (5 mg/0.79 ml) contained sufficient MgCl2 and adenosine deaminase to give 10 mM and 0.1 units/ml, respectively, final concentration in the incubation. […] After all additions, the rack of tubes is vortexed, and the tubes are then incubated for 60 min at 25° C. in a shaking water bath. The rack of tubes is vortexed an additional time halfway through the incubation.
Incubations are terminated by filtration through 2.4 cm GF/B filters under reduced pressure. Each tube is filtered as follows: the contents of the tube are poured on the filter, 4 ml of ice-cold Tris are added to the tube and the contents poured onto the filter, and the filter is washed twice with 4 ml of ice-cold Tris. The filtration is complete in about twelve seconds. Filters are put in scintillation vials, 8 ml of Formula 947 scintillation fluid added, and the vials left overnight, shaken, and counted in a liquid scintillation counter at 40% efficiency.
Nonspecific binding is defined as binding in the presence of 100 μM N6-cyclopentyladenosine, and specific binding is defined as total binding minus nonspecific binding. The IC50 is calculated by weighted nonlinear least squares curve-fitting to the mass-action equation. [formula] where
Weighting factors are calculated under the assumption that the standard deviation was proportional to the predicted value of Y. Nonspecific binding is treated as a very large (infinite) concentration of drug in the computer analysis.

Structure (SMILES): CCc1nnc2c(Nc3ccccc3)nc3ccccc3n12 [Example 11, 1-Ethyl-N-phenyl[1,2,4]triazolo[4,3-a]quinoxalin-4-amine]
- IC50 [1]: 982 nM
- IC50 [2]: 20 µM

Structure (SMILES): CCCc1nnc2c(NC3CCCC3)nc3ccccc3n12 [Example 4, N-Cyclopentyl-1-propyl[1,2,4]triazolo[4,3-a]quinoxalin-4-amine]
- IC50 [1]: 68 nM
- IC50 [2]: 5.08 µM

Structure (SMILES): CCc1nnc2c(NC3CC3)nc3ccccc3n12 [Example 6, N-Cyclopropyl-1-ethyl[1,2,4]triazolo[4,3-a]quinoxalin-4-amine]
- IC50 [1]: 487 nM
- IC50 [2]: 6.63 µM

Structure (SMILES): CCc1nnc2c(NC[C@H](C)O)nc3ccccc3n12 [Example 10, (S)-1-[(1-ethyl[1,2,4]triazolo[4,3-a]quinoxalin-4-yl)amino]-2-propanol]
- IC50 [1]: 554 nM
- IC50 [2]: 40.7 µM

Structure (SMILES): c1ccc2c(c1)nc(NC1CCCC1)c1nncn12 [Example 1, N-Cyclopentyl[1,2,4]triazolo[4,3-a]quinoxalin-4-amine]
- IC50 [1]: 331 nM
- IC50 [2]: 7.77 µM

Structure (SMILES): FC(F)(F)c1nnc2c(NC3CCCC3)nc3ccccc3n12 [Example 13, N-Cyclopentyl-1-(trifluoromethyl)[1,2,4]triazolo [4,3-a]quinoxalin-4-amine]
- IC50 [1]: 12.5 nM
- IC50 [2]: 2.08 µM

Structure (SMILES): CCCCc1nnc2c(NC3CCCC3)nc3ccccc3n12 [Example 5, 1-Butyl-N-cyclopentyl[1,2,4]triazolo[4,3-a]quinoxalin-4-amine]
- IC50 [1]: 101 nM
- IC50 [2]: > 100 µM

Structure (SMILES): Cc1nnc2c(NC3CCCC3)nc3ccccc3n12 [Example 2, N-cyclopentyl-1-methyl[1,2,4]triazolo[4,3-a]quinoxalin-4-amine]
- IC50 [1]: 71 nM
- IC50 [2]: 6.13 µM

Structure (SMILES): CCc1nnc2c(N[C@@H]3C[C@H]4CC[C@@H]3C4)nc3ccccc3n12 (relative stereo) [Example 9, Exo-N-bicyclo[2.2.1]hept-2-yl-1-ethyl[1,2,4]triazolo [4,3-a]quinoxalin-4-amine]
- IC50 [1]: 74 nM
- IC50 [2]: 8.69 µM

Structure (SMILES): CCc1nnc2c(NC3CCCC3)nc3ccccc3n12 [Example 3, N-Cyclopentyl-1-ethyl[1,2,4]triazolo[4,3-a]quinoxalin-4-amine]
- IC50 [1]: 49.7 nM
- IC50 [2]: 2.51 µM

Structure (SMILES): CCc1nnc2c(NC3CCC3)nc3ccccc3n12 [Example 7, N-Cyclobutyl-1-ethyl[1,2,4]triazolo[4,3-a]quinoxalin-4-amine]
- IC50 [1]: 109 nM
- IC50 [2]: 2.32 µM

Structure (SMILES): CCc1nnc2c(NC3CCCCC3)nc3ccccc3n12 [Example 8, N-Cyclohexyl-1-ethyl[1,2,4]triazolo[4,3-a]quinoxalin-4-amine]
- IC50 [1]: 146 nM
- IC50 [2]: 5.88 µM
